Consider 13 compounds from patent publication US7585895B2, “Therapeutic substituted cyclopentanes” (Allergan, Inc., priority 2005, dated 2009).

Test [1] concerns the target T1, EP2 (Homo sapiens, UniProt P43116). Briefly: Competition binding, [3H]PGE2, EP2 (Ki). More on the design: expressed in transfected cells; membranes or whole cells. Particulars: HEK 293 cells stably expressing human EP2, [3H]PGE2. How it is done:
Competition binding experiments were performed in a medium containing Hank's balanced salt solution, Hepes 20 mM, pH 7.3, membranes (˜60 μg protein) or 2×10^5 cells from HEK 293 cells stably expressing human EP2 receptors, [^3H]PGE2 (10 nM) and various concentrations of test compounds in a total volume of 300 μl. Reaction mixtures were incubated at 23° C. for 60 min, and were filtered over Whatman GF/B filters under vacuum. Filters were washed three times with 5 ml ice-cold buffer containing 50 mM Tris/HCl (pH 7.3). Non-specific binding was estimated in the presence of excess unlabeled PGE2 (10 μM). Binding data fitted to the binding model for a single class of binding sites, using nonlinear regression analysis. IC50 values thus obtained were converted to Ki using the equation of Ki=(IC50/(1+[L]/KD) where [L] represents PGE2 concentration (10 nM) and KD the dissociation constant for [^3H]PGE2 at human EP2 receptors (40 nM).
HEK-293 cells stably expressing the human or feline FP receptor, or EP1, EP2, or EP4 receptors were washed with TME buffer, scraped from the bottom of the flasks, and homogenized for 30 sec using a Brinkman PT 10/35 polytron. TME buffer was added to achieve a final 40 ml volume in the centrifuge tubes (the composition of TME is 100 mM TRIS base, 20 mM MgCl2, […]; 10N HCl is added to achieve a pH of 7.4).
The cell homogenate was centrifuged at 19000 r.p.m. for 20 min at 4° C using a Beckman Ti-60 rotor. The resultant pellet was resuspended in TME buffer to give a final 1 mg/ml protein concentration, as determined by Biorad assay. Radioligand binding competition assays vs. [^3H-]17-phenyl PGF2α. (5 nM) were performed in a 100 μl volume for 60 min. Binding reactions were started by adding plasma membrane fraction. The reaction was terminated by the addition of 4 ml ice-cold TRIS-HCl buffer and rapid filtration through glass fiber GF/B filters using a Brandel cell harvester. The filters were washed 3 times with ice-cold buffer and oven dried for one hour.
[^3H-] PGE2 (specific activity 180 Ci mmol) was used as the radioligand for EP receptors. [^3H] 17-phenyl PGF2α, was employed for FP receptor binding studies. Binding studies employing EP1, EP2, EP4 and FP receptors were performed in duplicate in at least three separate experiments. A 200 μl assay volume was used. Incubations were for 60 min at 25° C. and were terminated by the addition of 4 ml of ice-cold 50 mM TRIS-HCl, followed by rapid filtration through Whatman GF/B filters and three additional 4 ml washes in a cell harvester (Brandel). Competition studies were performed using a final concentration of 5 nM [^3H]-PGE2, or 5 nM [^3H] 17-phenyl PGF2αand non-specific binding determined with 10^−5M of unlabeled PGE2, or 17-phenyl PGF2α, according to receptor subtype studied.

For test [2], the target named is T1, EP2. Briefly: cAMP assay, HEK-EBNA cells expressing EP2. Particulars: value in parentheses in EP2 column, read-out: EP2 EC50 (nM), measurement of cAMP (data in parentheses). The arrangement: expressed in transfected cells; host or cells: HEK-EBNA. In kind it is cell-based. How it is done:
A 384-well drug plate was prepared to contain 6 test compounds, PGE2 and cAMP in 16 serial dilutions in triplicate, using a Biomek station. HEK-EBNA cells expressing a target PG receptor subtype (EP2 or EP4) were suspended in a stimulation buffer (HBSS, 0.1% BSA, 0.5 mM IBMX and 5 mM HEPES, pH 7.4) in a density of 10^4 cells/5 μl. The reaction was initiated by mixing 5 μL drug dilutions with 5 μl of HEK-EBNA cells in a well, carried out for 30 min at room temperature, and followed by the addition of 5 μl anti-cAMP acceptor beads in the control buffer with Tween-20 (25 mM NaCl, 0.03% Tween-20, 5 mM HEPES, pH7.4). After 30 min in the dark at room temperature, the mixtures were incubated with 15 μl biotinylated-cAMP/strepavidin donor beads in Lysis/Detection buffer (0.1% BSA, 0.3% Tween-20 and 5 mM HEPES, pH7.4) for 45 min at the room temperature. Fluorescence changes were read using a Fusion-alpha HT microplate reader.

Test [3] deals with T2, hFP (Homo sapiens, UniProt P43088).
T2 construct: expressed in transfected cells
T2 sequence (P43088 whole entry): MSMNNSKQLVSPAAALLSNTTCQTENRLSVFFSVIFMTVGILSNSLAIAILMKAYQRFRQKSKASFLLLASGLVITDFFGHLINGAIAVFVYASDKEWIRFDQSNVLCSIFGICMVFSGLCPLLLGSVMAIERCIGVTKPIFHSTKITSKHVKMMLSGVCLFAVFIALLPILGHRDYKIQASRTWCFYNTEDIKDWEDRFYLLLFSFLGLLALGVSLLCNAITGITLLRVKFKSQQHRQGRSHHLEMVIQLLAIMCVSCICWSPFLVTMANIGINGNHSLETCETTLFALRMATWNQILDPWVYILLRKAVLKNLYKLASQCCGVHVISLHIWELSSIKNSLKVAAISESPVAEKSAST
Briefly: FLIPR calcium signal, FP. In kind it is cell-based. Particulars: HEK-293(EBNA). How it is done: HEK-293(EBNA) cells, stably expressing one type or subtype of recombinant human prostaglandin receptors (prostaglandin receptors expressed: hDP/Gqs5; hEP1; hEP2/Gqs5; hEP3A/Gqi5; hEP4/Gqs5; hFP; hIP; hTP), were cultured in 100 mm culture dishes in high-glucose DMEM medium containing 10% fetal bovine serum, 2 mM 1-glutamine, 250 μg/ml geneticin (G418) and 200 μg/ml hygromycin B as selection markers, and 100 units/ml penicillin G, 100 μg/ml streptomycin and 0.25 μg/ml amphotericin B.
Cells were seeded at a density of 5×10^4 cells per well in Biocoat® Poly-D-lysine-coated black-wall, clear-bottom 96-well plates (Becton-Dickinson) and allowed to attach overnight in an incubator at 37° C. Cells were then washed two times with HBSS-HEPES buffer (Hanks Balanced Salt Solution without bicarbonate and phenol red, 20 mM HEPES, pH 7.4) using a Denley Cellwash plate washer (Labsystems). After 45 minutes of dye-loading in the dark, using the calcium-sensitive dye Fluo-4 AM at a final concentration of 2 μM, plates were washed four times with HBSS-HEPES buffer to remove excess dye leaving 100 μl in each well. Plates were re-equilibrated to 37° C. for a few minutes.
Cells were excited with an Argon laser at 488 nm, and emission was measured through a 510-570 nm bandwidth emission filter (FLIPR™, Molecular Devices, Sunnyvale, Calif.). Drug solution was added in a 50 μl volume to each well to give the desired final concentration. The peak increase in fluorescence intensity was recorded for each well. On each plate, four wells each served as negative (HBSS-HEPES buffer) and positive controls (standard agonists: BW245C (hDP); PGE2 (HEP1; hEP2/Gqs5; hEP3A/Gqi5; hEP4/Gqs5); PGF2α (hFP); carbacyclin (hIP); U-46619 (hTP), depending on receptor). The peak fluorescence change in each drug-containing well was then expressed relative to the controls.
Compounds were tested in a high-throughput (HTS) or concentration-response (CoRe) format. In the HTS format, forty-four compounds per plate were examined in duplicates at a concentration of 10^−5 M. To generate concentration-response curves, four compounds per plate were tested in duplicates in a concentration range between 10^−5 and 10^−11 M. The duplicate values were averaged. In either, HTS or CoRe format each compound was tested on at least 3 separate plates using cells from different passages to give an n≧3.

T1 sequence (P43116 whole entry): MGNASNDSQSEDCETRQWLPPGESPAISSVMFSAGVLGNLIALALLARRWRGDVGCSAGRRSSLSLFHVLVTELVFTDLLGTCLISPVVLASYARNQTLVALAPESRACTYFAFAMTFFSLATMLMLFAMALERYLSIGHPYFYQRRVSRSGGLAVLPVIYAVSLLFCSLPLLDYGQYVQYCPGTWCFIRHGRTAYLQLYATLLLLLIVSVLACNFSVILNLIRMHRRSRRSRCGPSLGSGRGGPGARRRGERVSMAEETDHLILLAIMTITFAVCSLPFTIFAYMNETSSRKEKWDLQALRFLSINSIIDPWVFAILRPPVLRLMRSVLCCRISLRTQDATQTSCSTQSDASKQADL

For the compound `CCCCCC(O)c1ccc([C@@H]2[C@@H](C/C=C\CCCC(=O)O)[C@H](F)C[C@H]2O)cc1` (mixture of isomers) [Entry 8, (Z)-7-{(1R,2S,3R,5R)-5-Fluoro-3-hydroxy-2-[4-(1-hydroxy-hexyl)-phenyl]-cyclopentyl}-hept-5-enoic acid], the Ki in test [1] turned out to be 804 nM. Besides, the EC50 in test [2] amounted to 8 nM. Besides, in test [3], the “Ca2+ Signal-EC50 (nM) FP” value is given as “not active”.

For the compound `CCCCCC(O)c1ccc([C@@H]2[C@@H](C/C=C\CCCC(=O)O)[C@H](Cl)C[C@H]2O)cc1` (mixture of isomers) [Entry 11, (Z)-7-{(1R,2S,3R,5R)-5-Chloro-3-hydroxy-2-[4-(1-hydroxy-hexyl)-phenyl]-cyclopentyl}-hept-5-enoic acid], the affinity in test [1], expressed as Ki, was 209 nM. For the same compound, in test [2], the EC50 turned out to be 3 nM. For the same compound, the “Ca2+ Signal-EC50 (nM) FP” value in test [3] was “not active”.

Turning to `O=C(O)CCC/C=C\C[C@@H]1[C@@H](c2ccc(C(O)CC3CCCCC3)cc2)[C@H](O)C[C@H]1Cl` (mixture of isomers) [Entry 17, (Z)-7-{(1R,2S,3R,5R)-5-Chloro-2-[4-(2-cyclohexyl-1-hydroxy-ethyl)-phenyl]-3-hydroxy-cyclopentyl}-hept-5-enoic acid], the Ki in test [1] was 483 nM. Also, the EC50 in test [2] amounted to 495 nM. The “Ca2+ Signal-EC50 (nM) FP” value in test [3] is reported as “not active”.

In test [1], `CC(C)(C)CCCC(O)c1ccc([C@@H]2[C@@H](CCCCCCC(=O)O)[C@H](Cl)C[C@H]2O)cc1` (mixture of isomers) [Entry 20, 7-{(1R,2S,3R,5R)-5-Chloro-3-hydroxy-2-[4-(1-hydroxy-5,5-dimethyl-hexyl)-phenyl]-cyclopentyl}-heptanoic acid] came in with an inhibition constant (Ki) of 3850 nM. In test [2], the EC50 was greater than 10000 nM. Also, in test [3], the “Ca2+ Signal-EC50 (nM) FP” value is on record as “not active”.

In the case of `O=C(O)CCC/C=C\C[C@@H]1[C@@H](c2ccc(C(O)Cc3ccccc3)cc2)[C@H](O)C[C@H]1Cl` (mixture of isomers) [Entry 21, (Z)-7-{(1R,2S,3R,5R)-5-Chloro-3-hydroxy-2-[4-(1-hydroxy-2-phenyl-ethyl)-phenyl]-cyclopentyl}-hept-5-enoic acid], in test [1], the affinity, expressed as Ki, was 77 nM. Further, the concentration giving a half-maximal response (EC50) in test [2] came out at 14 nM. The “Ca2+ Signal-EC50 (nM) FP” value in test [3] is “not active”.

As to `CCCCC(O)c1ccc([C@@H]2[C@@H](C/C=C\CCCC(=O)O)[C@H](Cl)C[C@H]2O)cc1` (mixture of isomers) [Entry 27, (Z)-7-{(1R,2S,3R,5R)-5-Chloro-3-hydroxy-2-[4-(1-hydroxy-pentyl)-phenyl]-cyclopentyl}-hept-5-enoic acid], the Ki in test [1] is 589 nM. Besides, the EC50 in test [2] amounted to 10 nM. Also, the “Ca2+ Signal-EC50 (nM) FP” value in test [3] is “not active”.

In turn, `CCCCC(O)C(C)(C)c1ccc([C@@H]2[C@@H](C/C=C\CCCC(=O)O)[C@H](Cl)C[C@H]2O)cc1` (mixture of isomers) [Entry 32, (Z)-7-{(1R,2S,3R,5R)-5-Chloro-3-hydroxy-2-[4-(2-hydroxy-1,1-dimethyl-hexyl)-phenyl]-cyclopentyl}-hept-5-enoic acid] showed a Ki in test [1] of 225 nM. Besides, in test [2], the EC50 was 9 nM. For the same compound, the “Ca2+ Signal-EC50 (nM) FP” value in test [3] is recorded as “not active”.

`CCCCCC(O)c1ccc([C@@H]2[C@@H](C/C=C\CCCC(=O)O)[C@H](Cl)C[C@H]2O)cc1` (single isomer, unassigned) [Entry 12] registered a Ki in test [1] of 209 nM. Further, the EC50 in test [2] worked out at 38 nM. For the same compound, the “Ca2+ Signal-EC50 (nM) FP” value in test [3] was “not active”.

In turn, `CCCCCC(O)c1ccc([C@@H]2[C@@H](C/C=C\CCCC(=O)O)[C@H](Cl)C[C@H]2O)cc1` (single isomer, unassigned) [Entry 13] showed a Ki in test [1] of 73 nM. Moreover, in test [2], the EC50 was found to be 3 nM. Moreover, the “Ca2+ Signal-EC50 (nM) FP” value in test [3] was “not active”.

As for `CCCCCC(O)c1ccc([C@@H]2[C@@H](CCCc3ccc(C(=O)O)s3)[C@H](Cl)C[C@H]2O)cc1` (stereo partly drawn) [Entry 2, 5-(3-{(1R,2S,3R,5R)-5-Chloro-3-hydroxy-2-[4-(1-hydroxy-hexyl)-phenyl]-cyclopentyl}-propyl)-thiophene-2-carboxylic acid], affinity in test [1] was put at a Ki of 24 nM. The EC50 in test [2] came to 2 nM. For the same compound, the “Ca2+ Signal-EC50 (nM) FP” value in test [3] was “not active”.

As to `CCCCCC(O)c1ccc([C@@H]2[C@@H](Cc3cccc(CCC(=O)O)c3)[C@H](Cl)C[C@H]2O)cc1` (stereo partly drawn) [Entry 3, 3-(3-{(1R,2S,3R,5R)-5-Chloro-3-hydroxy-2-[4-(1-hydroxy-hexyl)-phenyl]-cyclopentylmethyl}-phenyl)-propionic acid], in test [1], the Ki stood at 2780 nM. For the same compound, the EC50 in test [2] was 56 nM. In addition, in test [3], the “Ca2+ Signal-EC50 (nM) FP” value is “not active”.

`CCCC1(C(O)c2cccc([C@@H]3[C@@H](Cc4cccc(CCC(=O)O)c4)[C@H](Cl)C[C@H]3O)c2)CCC1` (stereo partly drawn) [Entry 4, 3-[3-((1R,2S,3R,5R)-5-Chloro-3-hydroxy-2-{3-[hydroxy-(1-propyl-cyclobutyl)-methyl]-phenyl}-cyclopentylmethyl)-phenyl]-propionic acid]: the Ki in test [1] was greater than 10000 nM. The EC50 in test [2] is 69 nM. The “Ca2+ Signal-EC50 (nM) FP” value in test [3] is on record as “not active”.

For `CCCCCC(O)c1ccc([C@@H]2[C@@H](CCCc3ncc(C(=O)O)s3)[C@H](Cl)C[C@H]2O)cc1` (stereo partly drawn) [Entry 5, 2-(3-{(1R,2S,3R,5R)-5-Chloro-3-hydroxy-2-[4-(1-hydroxy-hexyl)-phenyl]-cyclopentyl}-propyl)-thiazole-5-carboxylic acid], the Ki in test [1] was determined as 6170 nM. The EC50 in test [2] was determined as 1060 nM. In addition, the “Ca2+ Signal-EC50 (nM) FP” value in test [3] is given as “not active”.
